Source: ChEMBL document CHEMBL4043121, “5-Bromoindirubin 3'-(O-oxiran-2-ylmethyl)oxime: A long-acting anticancer agent and a suicide inhibitor for epoxide hydrolase” (Bioorg Med Chem, 2017)
Active and inactive are the calls of the source. No cut-off for these calls is given here.

Legend:
[1] = system: HepG2; test: Cytotoxicity against human HepG2 cells assessed as cell growth inhibition after 24 hrs by alamar blue assay; format: functional, cell-based; settings: HepG2, 24 h
[2] = system: HepG2; test: Cytotoxicity against human HepG2 cells assessed as cell viability at 3 uM after 72 hrs by alamar blue assay relative to control; format: functional; settings: HepG2, 72 h, read-out: Activity
[3] = system: HepG2; test: Cytotoxicity against human HepG2 cells assessed as cell viability at 3 uM after 24 hrs by alamar blue assay relative to control; format: functional; settings: HepG2, 24 h, read-out: Activity
[4] = system: HepG2; test: Cytotoxicity against human HepG2 cells assessed as cell viability at 1 uM after 24 hrs by alamar blue assay relative to control; format: functional; settings: HepG2, 24 h, read-out: Activity
[5] = system: HepG2; test: Cytotoxicity against human HepG2 cells assessed as cell viability at 1 uM after 72 hrs by alamar blue assay relative to control; format: functional; settings: HepG2, 72 h, read-out: Activity
[6] = Drug metabolism in human HepG2 cell lysate assessed as epoxide hydrolase-mediated 1H,1'H-[2,3']Biindolylidene-3,2'-dione 3-[O-(2,3-dihydroxy-propyl)-oxime] level after 5 mins by HPLC analysis; format: ADME
[7] = Drug metabolism in human HepG2 cell lysate assessed as epoxide hydrolase-mediated 5-bromoindirubin 3'-(O-2,3-dihydroxypropyl)oxime level after 5 mins by HPLC analysis; format: ADME
[8] = Drug recovery in human HepG2 cell lysate measured up to 30 mins by HPLC analysis; format: ADME, cell-based; settings: read-out: Drug recovery
[9] = Drug metabolism in human HepG2 cell lysate assessed as epoxide hydrolase-mediated oxirane hydrolysis at 9 uM measured up to 30 mins by HPLC analysis; format: ADME; settings: 0.5 h
[10] = system: epoxide hydrolase; test: Substrate activity at epoxide hydrolase in human HepG2 cell lysate after 5 mins by Lineweaver-Burk plot analysis; format: ADME
[11] = system: HepG2; test: Cytotoxicity against human HepG2 cells assessed as cell viability at 3 uM up to 72 hrs by alamar blue assay; format: functional, cell-based
[12] = Drug metabolism in human HepG2 cell lysate assessed as epoxide hydrolase-mediated 5-bromoindirubin 3'-(O-2,3-dihydroxypropyl)oxime formation after 30 mins by HPLC analysis; format: ADME; settings: 0.5 h
[13] = Drug metabolism in human HepG2 cell lysate assessed as epoxide hydrolase-mediated 5-bromoindirubin 3'-(O-2,3-dihydroxypropyl)oxime formation after 30 mins by UPLC/MS analysis; format: ADME; settings: 0.5 h
[14] = system: HepG2; test: Retention time of the compound in human HepG2 cell lysate by HPLC analysis; format: ADME, cell-based
[15] = Drug metabolism in human HepG2 cell lysate assessed as epoxide hydrolase-mediated 5-bromoindirubin 3'-(O-2,3-dihydroxypropyl)oxime level by HPLC analysis; format: ADME; settings: TDE = time-dependent effect
[16] = Drug metabolism in human HepG2 cell lysate assessed as epoxide hydrolase-mediated 5-bromoindirubin 3'-(O-2,3-dihydroxypropyl)oxime level after 20 mins by HPLC analysis; format: ADME
[17] = Drug recovery in human HepG2 cell lysate at 5 mins by HPLC analysis; format: ADME, cell-based; settings: read-out: Drug recovery
[18] = Drug recovery in human HepG2 cell lysate after 10 to 30 mins by HPLC analysis; format: ADME, cell-based
[19] = Drug recovery in human HepG2 cell lysate by HPLC analysis; format: ADME, cell-based; settings: TDE = time-dependent effect
[20] = Drug metabolism in human HepG2 cell lysate assessed as epoxide hydrolase-mediated oxirane hydrolysis at 20 uM measured up to 30 mins by HPLC analysis; format: ADME; settings: 0.5 h
[21] = Drug recovery in human HepG2 cell lysate measured immediately after compound addition by HPLC analysis; format: ADME, cell-based; settings: read-out: Drug recovery
[22] = Substrate activity at epoxide hydrolase in human HepG2 cell lysate assessed as 5-bromoindirubin 3'-(O-2,3-dihydroxypropyl)oxime formation at 2.5 to 6.25 uM after 5 mins by HPLC analysis; format: ADME
[23] = species: Homo sapiens; test: Effect on epoxide hydrolase activity in human HepG2 cell lysate measured up to 25 uM
[24] = species: Homo sapiens; test: Inhibition of epoxide hydrolase in human HepG2 cell lysate up to 25 uM by Kitz-Wilson method; settings: TDE = time-dependent effect
[25] = Substrate activity at epoxide hydrolase in human HepG2 cell lysate assessed as 5-bromoindirubin 3'-(O-2,3-dihydroxypropyl)oxime formation at >10 uM after 5 mins by HPLC analysis; format: ADME
[26] = species: Homo sapiens; test: Inhibition of epoxide hydrolase in human HepG2 cell lysate up to 25 uM measured after 5 to 10 mins by Kitz-Wilson method

| Compound | IC50 [1] | other results |
| --- | --- | --- |
| O=C1Nc2ccccc2/C1=C1/Nc2ccc(Br)cc2C1=O | > 100 µM |  |
| O=C1Nc2ccc(Br)cc2/C1=C1/Nc2ccc(Br)cc2/C1=N\OCC1CO1 (stereo unspecified) | 2.5 µM |  |
| O=C1Nc2ccc(Br)cc2/C1=C1/Nc2ccc(Br)cc2/C1=N\O | 7 µM |  |
| O=C1Nc2cc(Br)ccc2/C1=C1/Nc2ccc(Br)cc2/C1=N\O | 3.7 µM |  |
| O=C1Nc2c(Br)cc(Br)cc2/C1=C1/Nc2ccccc2/C1=N\O | 6.6 µM |  |
| O=C1Nc2ccccc2/C1=C1/Nc2ccccc2/C1=N\OCC1CO1 (stereo unspecified) |  | viability at 3 µM [2]: 1.8%; viability at 3 µM [3]: 33%; viability at 1 µM [4]: 66%; viability at 1 µM [5]: 85%; Drug metabolism [6]: 7.34 nmol; Drug metabolism [7]: 2.24 nmol; remaining at 0.5 h [8]: 96 to 103%; Drug metabolism [9]: 1.8 nmol; Km at 5 min [10]: 1.51 µM |
| O=C1Nc2ccccc2/C1=C1/Nc2ccccc2C1=O [INDIRUBIN] | > 100 µM |  |
| O=C1Nc2cc(Br)ccc2/C1=C1/Nc2ccccc2C1=O | > 100 µM |  |
| O=C1Nc2c(Br)cc(Br)cc2/C1=C1/Nc2ccccc2/C1=N\OCC1CO1 (stereo unspecified) | 8.8 µM | Activity [11]: inactive |
| O=C1Nc2c(Br)cccc2/C1=C1/Nc2ccccc2/C1=N\O | 4.8 µM |  |
| COc1cccc2c1NC(=O)/C2=C1\Nc2ccccc2C1=O | > 100 µM |  |
| O=C1Nc2c(Br)cccc2/C1=C1/Nc2cc(Br)ccc2/C1=N\O | 17 µM |  |
| O=C1Nc2ccccc2/C1=C1/Nc2cc(Br)ccc2C1=O | > 100 µM |  |
| O=C1Nc2ccccc2/C1=C1/Nc2ccc(Br)cc2/C1=N\OCC1CO1 (stereo unspecified) | 3.3 µM |  |
| O=C1Nc2ccc(Br)cc2/C1=C1/Nc2ccc(Br)cc2C1=O | > 100 µM |  |
| COc1cccc2c1NC(=O)/C2=C1\Nc2ccccc2\C1=N/O | 5.9 µM |  |
| O=C1Nc2cc(Br)ccc2/C1=C1/Nc2cc(Br)ccc2C1=O | > 100 µM |  |
| O=C1Nc2c(Br)cccc2/C1=C1/Nc2cc(Br)ccc2C1=O | > 100 µM |  |
| O=C1Nc2c(Br)cccc2/C1=C1/Nc2cc(Br)ccc2/C1=N\OCC1CO1 (stereo unspecified) | > 100 µM |  |
| O=C1Nc2cc(Br)c(Br)cc2/C1=C1/Nc2ccccc2/C1=N\O | 4.4 µM |  |

| Compound | IC50 [1] | other results |
| --- | --- | --- |
| COc1cccc2c1NC(=O)/C2=C1\Nc2ccccc2\C1=N/OCC1CO1 (stereo unspecified) | 10 µM |  |
| O=C1Nc2ccccc2/C1=C1/Nc2cc(Br)ccc2/C1=N\OCC1CO1 (stereo unspecified) | 4.5 µM |  |
| O=C1Nc2ccc(Cl)cc2/C1=C1/Nc2ccccc2/C1=N\OCC1CO1 (stereo unspecified) | 1.3 µM |  |
| O=C1Nc2ccc(Br)cc2/C1=C1/Nc2ccccc2/C1=N\OCC1CO1 (stereo unspecified) | 0.62 µM | viability at 3 µM [2]: 4.8%; viability at 3 µM [3]: 30%; viability at 1 µM [4]: 39%; viability at 1 µM [5]: 10%; Drug metabolism [12]: Metabolite_Detected; Drug metabolism [13]: Metabolite_Detected; Retention_time [14]: 5.9 min; Drug metabolism [15]: Tde; Drug metabolism [16]: <= 4 nmol; remaining at 5 min [17]: 88%; Drug recovery [18]: 80%; Drug recovery [19]: Tde; Drug metabolism [20]: 4 nmol; remaining at 0 min [21]: 95%; Km at 5 min [10]: 3.34 µM; Activity [22]: Active; Activity [23]: inactive; inhibition [24]: Tde |
| O=C1Nc2ccc(I)cc2/C1=C1/Nc2ccccc2/C1=N\OCC1CO1 (stereo unspecified) | 3 µM |  |
| COc1ccc2c(c1)NC(=O)/C2=C1\Nc2ccccc2\C1=N/OCC1CO1 (stereo unspecified) | 61 µM |  |
| O=C1Nc2cc(Br)ccc2/C1=C1/Nc2ccc(Br)cc2/C1=N\OCC1CO1 (stereo unspecified) | > 100 µM |  |
| O=C1Nc2cc(Br)ccc2/C1=C1/Nc2ccc(Br)cc2C1=O | > 100 µM |  |
| COc1ccc2c(c1)/C(=C1/Nc3ccccc3/C1=N\O)C(=O)N2 | 6.2 µM |  |
| O=C1Nc2ccc(Cl)cc2/C1=C1/Nc2ccccc2/C1=N\O | 13 µM |  |
| O=C1Nc2c(Br)cccc2/C1=C1/Nc2ccc(Br)cc2C1=O | > 100 µM |  |
| O=C1Nc2c(Br)cccc2/C1=C1/Nc2ccc(Br)cc2/C1=N\O | 4.9 µM |  |
| O=C1Nc2ccc(Cl)cc2/C1=C1/Nc2ccccc2C1=O | > 100 µM |  |
| O=C1Nc2ccc(Br)cc2/C1=C1/Nc2cc(Br)ccc2/C1=N\O | > 100 µM |  |
| COc1ccc2c(c1)/C(=C1/Nc3ccccc3C1=O)C(=O)N2 | > 100 µM |  |
| O=C1Nc2ccc(F)cc2/C1=C1/Nc2ccccc2C1=O | > 100 µM |  |
| O=C1Nc2ccc(F)cc2/C1=C1/Nc2ccccc2/C1=N\OCC1CO1 (stereo unspecified) | 1.7 µM |  |
| O=C1Nc2cc(Br)ccc2/C1=C1/Nc2cc(Br)ccc2/C1=N\OCC1CO1 (stereo unspecified) | > 100 µM |  |
| O=C1Nc2ccc(Br)cc2/C1=C1/Nc2cc(Br)ccc2/C1=N\OCC1CO1 (stereo unspecified) | > 100 µM |  |
| O=C1Nc2ccc(Br)cc2/C1=C1/Nc2cc(Br)ccc2C1=O | > 100 µM |  |

| Compound | IC50 [1] | other results |
| --- | --- | --- |
| O=C1Nc2cc(Br)c(Br)cc2/C1=C1/Nc2ccccc2C1=O | > 100 µM |  |
| O=C1Nc2cc(Br)c(Br)cc2/C1=C1/Nc2ccccc2/C1=N\OCC1CO1 (stereo unspecified) | 1.9 µM | viability at 3 µM [2]: 6.5%; viability at 3 µM [3]: 48%; viability at 1 µM [4]: 78%; viability at 1 µM [5]: 96% |
| O=C1Nc2c(Br)cccc2/C1=C1/Nc2ccc(Br)cc2/C1=N\OCC1CO1 (stereo unspecified) | 10 µM | Activity [11]: inactive |
| O=C1Nc2c(Br)cccc2/C1=C1/Nc2ccccc2/C1=N\OCC1CO1 (stereo unspecified) | 37 µM | Activity [11]: inactive |
| O=C1Nc2ccc(I)cc2/C1=C1/Nc2ccccc2C1=O | > 100 µM |  |
| COc1ccc2c(c1)/C(=C1/Nc3ccccc3/C1=N\OCC1CO1)C(=O)N2 (stereo unspecified) | 1.6 µM |  |
| O=C1Nc2ccc(Br)cc2/C1=C1/Nc2ccccc2C1=O | > 100 µM |  |
| O=C1Nc2ccccc2/C1=C1/Nc2cc(Br)ccc2/C1=N\O | 14 µM |  |
| O=C1Nc2ccccc2/C1=C1/Nc2ccccc2/C1=N\OCCC1CO1 (stereo unspecified) | 7.8 µM |  |
| O=C1Nc2cc(Br)ccc2/C1=C1/Nc2cc(Br)ccc2/C1=N\O | 16 µM |  |
| O=C1Nc2ccccc2/C1=C1/Nc2ccccc2/C1=N\OCCCC1CO1 (stereo unspecified) | 16 µM |  |
| O=C1Nc2ccc(I)cc2/C1=C1/Nc2ccccc2/C1=N\O | 57 µM |  |
| O=C1Nc2ccc(F)cc2/C1=C1/Nc2ccccc2/C1=N\O | 10 µM |  |
| O=C1Nc2ccccc2/C1=C1/Nc2ccc(Br)cc2/C1=N\O | 11 µM |  |
| COc1ccc2c(c1)NC(=O)/C2=C1\Nc2ccccc2\C1=N/O | 21 µM |  |
| O=C1Nc2ccc(Br)cc2/C1=C1/Nc2ccccc2/C1=N\O [INDIRUBIN 2] | 6.9 µM |  |
| COc1ccc2c(c1)NC(=O)/C2=C1\Nc2ccccc2C1=O | > 100 µM |  |
| O=C1Nc2cc(Br)ccc2/C1=C1/Nc2ccccc2/C1=N\OCC1CO1 (stereo unspecified) | > 100 µM |  |
| O=C1Nc2c(Br)cccc2/C1=C1/Nc2ccccc2C1=O | > 100 µM |  |
| O=C1Nc2ccc(Br)cc2/C1=C1/Nc2ccccc2/C1=N\OCC(O)CO (stereo unspecified) | 9.8 µM | Retention_time [14]: 3.5 min; Activity [25]: Not Active; inhibition [26]: inactive |
